# Assay results published in ChEMBL document CHEMBL3885881, “DrugMatrix”.
# Organism: Rattus norvegicus
# Experiment: DrugMatrix - Regimen: Daily Repeat
# Assay type: toxicity, organism-based, Sprague-Dawley
# Design: regimen Daily Repeat, gender Male, age 6-8 weeks
# Details: in vivo, po, route oral GAVAGE, vehicle .5 % CMC; for ABSOLUTE BASOPHIL / ABSOLUTE EOSINOPHIL / ABSOLUTE LYMPHOCYTE / ABSOLUTE MONOCYTE / ABSOLUTE SEGMENTED NEUTROPHIL / BASOPHIL / EOSINOPHIL / ERYTHROCYTE COUNT / HEMATOCRIT / HEMOGLOBIN / LEUKOCYTE COUNT / LYMPHOCYTE / MEAN CORPUSCULAR HEMOGLOBIN / MEAN CORPUSCULAR HEMOGLOBIN CONCENTRATION / MEAN CORPUSCULAR VOLUME / MONOCYTE / NEUTROPHIL / NUCLEATED RED BLOOD CELLS / PLATELET COUNT: tissue Blood; for ALANINE AMINOTRANSFERASE / ALBUMIN / ALKALINE PHOSPHATASE / ASPARTATE AMINOTRANSFERASE / BLOOD UREA NITROGEN / CARBON DIOXIDE / CHLORIDE / CHOLESTEROL / CREATINE PHOSPHOKINASE / CREATININE / GLUCOSE / LACTATE DEHYDROGENASE / LIPASE / PHOSPHORUS / POTASSIUM / SODIUM / TOTAL BILIRUBIN / TOTAL PROTEIN / URIC ACID: tissue Plasma
# [1] = 88 mg/kg, 72 h, dose level Low, time 3 day
# [2] = 88 mg/kg, 120 h, dose level Low, time 5 day
# [3] = 750 mg/kg, 72 h, dose level High, time 3 day
# [4] = 750 mg/kg, 120 h, dose level High, time 5 day
structure (smiles),measurement,setting,value
CCC1(c2ccccc2)C(=O)NCNC1=O [PRIMIDONE],ABSOLUTE BASOPHIL,[1],0 CELLS/uL
same,ABSOLUTE EOSINOPHIL,[1],207.67 CELLS/uL
same,ABSOLUTE LYMPHOCYTE,[1],14556.33 CELLS/uL
same,ABSOLUTE MONOCYTE,[1],206 CELLS/uL
same,ABSOLUTE SEGMENTED NEUTROPHIL,[1],1063.33 CELLS/uL
same,BASOPHIL,[1],0%
same,EOSINOPHIL,[1],1.33%
same,ERYTHROCYTE COUNT,[1],5.49 x10E6/uL
same,HEMATOCRIT,[1],34.53%
same,HEMOGLOBIN,[1],13.03 G/DL
same,LEUKOCYTE COUNT,[1],16.03 x10E3/uL
same,LYMPHOCYTE,[1],90.67%
same,MEAN CORPUSCULAR HEMOGLOBIN,[1],23.87 pg
same,MEAN CORPUSCULAR HEMOGLOBIN CONCENTRATION,[1],37.8 G/DL
same,MEAN CORPUSCULAR VOLUME,[1],63.07 fL
same,MONOCYTE,[1],1.33%
same,NEUTROPHIL,[1],6.67%
same,NUCLEATED RED BLOOD CELLS,[1],0 /100WBC
same,PLATELET COUNT,[1],1338 x10E3/uL
same,ALANINE AMINOTRANSFERASE,[1],44.67 u/L
same,ALBUMIN,[1],4.17 G/DL
same,ALKALINE PHOSPHATASE,[1],329.33 u/L
same,ASPARTATE AMINOTRANSFERASE,[1],77.33 u/L
same,BLOOD UREA NITROGEN,[1],15 mg/dL
same,CARBON DIOXIDE,[1],25.33 mmol/L
same,CHLORIDE,[1],105.33 MEQ/L
same,CHOLESTEROL,[1],72 mg/dL
same,CREATINE PHOSPHOKINASE,[1],356 u/L
same,CREATININE,[1],0.16 mg/dL
same,GLUCOSE,[1],157.67 mg/dL
same,LACTATE DEHYDROGENASE,[1],80 u/L
same,LIPASE,[1],9 u/L
same,PHOSPHORUS,[1],13.8 mg/dL
same,POTASSIUM,[1],6.58 MEQ/L
same,SODIUM,[1],144.83 MEQ/L
same,TOTAL BILIRUBIN,[1],0.2 mg/dL
same,TOTAL PROTEIN,[1],5.83 G/DL
same,URIC ACID,[1],1.93 mg/dL
same,ABSOLUTE BASOPHIL,[2],0 CELLS/uL
same,ABSOLUTE EOSINOPHIL,[2],87 CELLS/uL
same,ABSOLUTE LYMPHOCYTE,[2],14869 CELLS/uL
same,ABSOLUTE MONOCYTE,[2],252 CELLS/uL
same,ABSOLUTE SEGMENTED NEUTROPHIL,[2],1292 CELLS/uL
same,BASOPHIL,[2],0%
same,EOSINOPHIL,[2],0.33%
same,ERYTHROCYTE COUNT,[2],5.5 x10E6/uL
same,HEMATOCRIT,[2],34.07%
same,HEMOGLOBIN,[2],13.03 G/DL
same,LEUKOCYTE COUNT,[2],16.5 x10E3/uL
same,LYMPHOCYTE,[2],91.33%
same,MEAN CORPUSCULAR HEMOGLOBIN,[2],23.67 pg
same,MEAN CORPUSCULAR HEMOGLOBIN CONCENTRATION,[2],38.3 G/DL
same,MEAN CORPUSCULAR VOLUME,[2],61.9 fL
same,MONOCYTE,[2],1.33%
same,NEUTROPHIL,[2],7%
same,NUCLEATED RED BLOOD CELLS,[2],0 /100WBC
same,PLATELET COUNT,[2],1298.67 x10E3/uL
same,ALANINE AMINOTRANSFERASE,[2],49.67 u/L
same,ALBUMIN,[2],3.93 G/DL
same,ALKALINE PHOSPHATASE,[2],300.67 u/L
same,ASPARTATE AMINOTRANSFERASE,[2],79.67 u/L
same,BLOOD UREA NITROGEN,[2],16.67 mg/dL
same,CARBON DIOXIDE,[2],27.67 mmol/L
same,CHLORIDE,[2],106.67 MEQ/L
same,CHOLESTEROL,[2],63.67 mg/dL
same,CREATINE PHOSPHOKINASE,[2],421.67 u/L
same,CREATININE,[2],0.21 mg/dL
same,GLUCOSE,[2],162 mg/dL
same,LACTATE DEHYDROGENASE,[2],161 u/L
same,LIPASE,[2],8.67 u/L
same,PHOSPHORUS,[2],13.87 mg/dL
same,POTASSIUM,[2],6.54 MEQ/L
same,SODIUM,[2],145.5 MEQ/L
same,TOTAL BILIRUBIN,[2],0.2 mg/dL
same,TOTAL PROTEIN,[2],6.03 G/DL
same,URIC ACID,[2],2.03 mg/dL
same,ABSOLUTE BASOPHIL,[3],0 CELLS/uL
same,ABSOLUTE EOSINOPHIL,[3],107 CELLS/uL
same,ABSOLUTE LYMPHOCYTE,[3],6934.67 CELLS/uL
same,ABSOLUTE MONOCYTE,[3],246.33 CELLS/uL
same,ABSOLUTE SEGMENTED NEUTROPHIL,[3],1312 CELLS/uL
same,BASOPHIL,[3],0%
same,EOSINOPHIL,[3],1%
same,ERYTHROCYTE COUNT,[3],6.1 x10E6/uL
same,HEMATOCRIT,[3],37.33%
same,HEMOGLOBIN,[3],14.33 G/DL
same,LEUKOCYTE COUNT,[3],8.6 x10E3/uL
same,LYMPHOCYTE,[3],79.33%
same,MEAN CORPUSCULAR HEMOGLOBIN,[3],23.6 pg
same,MEAN CORPUSCULAR HEMOGLOBIN CONCENTRATION,[3],38.3 G/DL
same,MEAN CORPUSCULAR VOLUME,[3],61.67 fL
same,MONOCYTE,[3],3%
same,NEUTROPHIL,[3],16.67%
same,NUCLEATED RED BLOOD CELLS,[3],0.33 /100WBC
same,PLATELET COUNT,[3],1338.67 x10E3/uL
same,ALANINE AMINOTRANSFERASE,[3],48.5 u/L
same,ALBUMIN,[3],4.73 G/DL
same,ALKALINE PHOSPHATASE,[3],307 u/L
same,ASPARTATE AMINOTRANSFERASE,[3],85 u/L
same,BLOOD UREA NITROGEN,[3],15.5 mg/dL
same,CARBON DIOXIDE,[3],26.33 mmol/L
same,CHLORIDE,[3],107.5 MEQ/L
same,CHOLESTEROL,[3],66.67 mg/dL
same,CREATINE PHOSPHOKINASE,[3],138 u/L
same,CREATININE,[3],0.24 mg/dL
same,GLUCOSE,[3],144.33 mg/dL
same,LACTATE DEHYDROGENASE,[3],137.33 u/L
same,LIPASE,[3],8.5 u/L
same,PHOSPHORUS,[3],10.5 mg/dL
same,POTASSIUM,[3],5.94 MEQ/L
same,SODIUM,[3],150.9 MEQ/L
same,TOTAL BILIRUBIN,[3],0.3 mg/dL
same,TOTAL PROTEIN,[3],6.2 G/DL
same,URIC ACID,[3],1 mg/dL
same,ABSOLUTE BASOPHIL,[4],0 CELLS/uL
same,ABSOLUTE EOSINOPHIL,[4],136.67 CELLS/uL
same,ABSOLUTE LYMPHOCYTE,[4],11870 CELLS/uL
same,ABSOLUTE MONOCYTE,[4],38.33 CELLS/uL
same,ABSOLUTE SEGMENTED NEUTROPHIL,[4],755 CELLS/uL
same,BASOPHIL,[4],0%
same,EOSINOPHIL,[4],1%
same,ERYTHROCYTE COUNT,[4],5.98 x10E6/uL
same,HEMATOCRIT,[4],37.3%
same,HEMOGLOBIN,[4],13.87 G/DL
same,LEUKOCYTE COUNT,[4],12.8 x10E3/uL
same,LYMPHOCYTE,[4],92.67%
same,MEAN CORPUSCULAR HEMOGLOBIN,[4],23.17 pg
same,MEAN CORPUSCULAR HEMOGLOBIN CONCENTRATION,[4],37.17 G/DL
same,MEAN CORPUSCULAR VOLUME,[4],62.37 fL
same,MONOCYTE,[4],0.33%
same,NEUTROPHIL,[4],6%
same,NUCLEATED RED BLOOD CELLS,[4],0 /100WBC
same,PLATELET COUNT,[4],1320.33 x10E3/uL
same,ALANINE AMINOTRANSFERASE,[4],59.67 u/L
same,ALBUMIN,[4],4.13 G/DL
same,ALKALINE PHOSPHATASE,[4],421 u/L
same,ASPARTATE AMINOTRANSFERASE,[4],98.33 u/L
same,BLOOD UREA NITROGEN,[4],15 mg/dL
same,CARBON DIOXIDE,[4],25.33 mmol/L
same,CHLORIDE,[4],105.33 MEQ/L
same,CHOLESTEROL,[4],68.33 mg/dL
same,CREATINE PHOSPHOKINASE,[4],186.67 u/L
same,CREATININE,[4],0.18 mg/dL
same,GLUCOSE,[4],159.33 mg/dL
same,LACTATE DEHYDROGENASE,[4],96 u/L
same,LIPASE,[4],9 u/L
same,PHOSPHORUS,[4],13.2 mg/dL
same,POTASSIUM,[4],6.32 MEQ/L
same,SODIUM,[4],146.03 MEQ/L
same,TOTAL BILIRUBIN,[4],0.2 mg/dL
same,TOTAL PROTEIN,[4],6.17 G/DL
same,URIC ACID,[4],2.07 mg/dL
